Test results reported in patent publication US20240279230A1, “CRYSTALLINE FORMS OF A HER2 INHIBITOR” (Boehringer Ingelheim International GmbH, priority 2022, published 2024).
“Also recorded” adds a separate entry of the source.

Assays:
Format in all cases: physicochemical
[1] = Temperature stress tests with form I, form II and form VI, PXRD; settings: 6 h at 150° C. (closed vial)
[2] = Dynamic Vapor Sorption (DVS) sorption isotherms, hygroscopic behaviour; settings: for Hygroscopicity: DVS classification; for Δm (0-80%), moisture absorbed at 80% RH / Δm (0-90%), maximum water uptake: DVS, 25.0 ±1.0° C.; for Δm (0-90%), maximum water uptake: up to 90% RH; for Phase change during DVS experiment: RH cycled twice 0% to 90% to 0%; for Hysteresis: between sorption and desorption curves
Protocol: The methodology for this can be as follows. The mass of the solids is monitored as the relative humidity (RH) was deliberately changed. The RH is cycled twice from 0% to 90% to 0% in 10% steps. The temperature during measurement is kept constantly at (25.0 ±1.0° C.) Each step is held until mass stability was achieved. A camera inside the instrument captured an image at the conclusion of each stage, allowing for the observation of any visual changes in the solid form during the analysis.

[3] = Thermogravimetric Analysis (TGA); settings: 20° C./min
Protocol: The methodology for this can be as follows. Solid compounds (˜5 mg) are placed in an aluminium pan and sealed. The instrument used for the analysis is a TA Instruments TGA 550. The same sample lots from DSC testing are used for TGA testing. Processing is completed using TRIOS software.

[4] = Polymorphic stability of form III and form IV under stress storage, PXRD; settings: 21 days;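 further: open storage at 90 °C with 3% RH or 78% RH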
Protocol: A Bruker D2 Phaser X-Ray Diffractometer (XRD, EQ-SSRD-XRD-01) can be used for characterizing the samples. Raw results are evaluated using DIFFRAC.EVA (Bruker, V5.0) software. The Kα2 contribution was stripped, and a peak search was performed using peak search parameters (width 0.302 and threshold 1.0).
A test sample (approximately 0.3 g) is representatively subsampled into an agate-type mortar and pestle. Sample is ground for approximately one minute to achieve a fine homogenous powder. Sample is then transferred into a stainless-steel sample holder fitted with a zero-diffraction plate (ZDP). The sample holder is then levelled off with a glass slide to create a flat sample surface level with the sample holder.

[5] = Chemical stability of solid state forms under temperature/humidity stress, related substances by HPLC at 252 nm; set-up: Impurity I / Impurity A / Impurity B / Impurity C / Impurity D / Impurity E / Impurity F / Impurity G / Impurity H: unit not given here
From the text: To do so, control samples are stored refrigerated in the presence of desiccant for the duration of the study and measured simultaneously with stressed samples by HPLC at a wavelength of 252 nm.

[6] = Control 1, stored refrigerated with desiccant
[7] = Control 2, stored refrigerated with desiccant
[8] = Control 3, stored refrigerated with desiccant

## C=CC(=O)NC1CCN(c2ncc3ncnc(Nc4ccc(Oc5ccc6c(c5)ncn6C)c(C)c4)c3n2)CC1 [Form I, N-{1-[8-({3-methyl-4-[(1-methyl-1H-1,3-benzodiazol-5-yl)oxy]phenyl}amino)-[1,3]diazino[5,4-d]pyrimidin-2-yl]piperidin-4-yl}prop-2-enamide]
[1]
  PXRD of stressed sample: Form I
[1]; listed as form I
  PXRD of stressed sample: remained unchanged; also recorded: polymorphically stable
[2]
  Hygroscopicity: hygroscopic
  Δm (0-80%), moisture absorbed at 80% RH: 5.4 wt %
  Δm (0-90%), maximum water uptake: 7.3 wt %
  Phase change during DVS experiment: no irreversible phase changes
  Hysteresis: yes
[2]; listed as form I
  Hygroscopicity: hygroscopic
  Δm (0-80%), moisture absorbed at 80% RH: 5.4 wt %
  Δm (0-90%), maximum water uptake: 7.3 wt %
  Hysteresis: significant hysteresis
[3]; Decomposition
  TGA change in mass: 47.883%
  TGA end: 463.12 °C
  TGA onset: 419.14 °C

## C=CC(=O)NC1CCN(c2ncc3ncnc(Nc4ccc(Oc5ccc6c(c5)ncn6C)c(C)c4)c3n2)CC1 [Form IV, N-{1-[8-({3-methyl-4-[(1-methyl-1H-1,3-benzodiazol-5-yl)oxy]phenyl}amino)-[1,3]diazino[5,4-d]pyrimidin-2-yl]piperidin-4-yl}prop-2-enamide]
[4]; open storage 90° C./3% RH
  Polymorphic stability by PXRD: stable and conformed to form IV reference standard; also recorded: neither form underwent phase changes
[4]; open storage 90° C./78% RH
  Polymorphic stability by PXRD: stable and conformed to form IV reference standard; also recorded: neither form underwent phase changes
[5]; 60-90° C., 3-79% RH, up to 21 days
  Color change after stressing: No color changes
[5]; 60° C./75% RH, 17 days
  Impurity A: 0.111
  Impurity B: 0.008
  Impurity C: 0.066
  Impurity D: 0.014
  Impurity E: 0.074
  Impurity F: 0.012
  Impurity G: 0.037
  Impurity H: 0.132
  Impurity I: 0.012
[5]; 70° C./62% RH, 17 days
  Impurity A: 0.113
  Impurity B: 0.010
  Impurity C: 0.065
  Impurity D: 0.022
  Impurity E: 0.069
  Impurity F: 0.013
  Impurity G: 0.038
  Impurity H: 0.133
  Impurity I: 0.012
[5]; 75° C./41% RH, 17 days
  Impurity A: 0.113
  Impurity B: 0.010
  Impurity C: 0.072
  Impurity D: 0.015
  Impurity E: 0.078
  Impurity F: 0
  Impurity G: 0.027
  Impurity H: 0.129
  Impurity I: 0.010
[5]; 75° C./79% RH, 10 days
  Impurity A: 0.103
  Impurity B: 0.010
  Impurity C: 0.065
  Impurity D: 0.017
  Impurity E: 0.073
  Impurity F: 0.016
  Impurity G: 0.038
  Impurity H: 0.130
  Impurity I: 0.012
[5]; 80° C./11% RH, 17 days
  Impurity A: 0.109
  Impurity B: 0.009
  Impurity C: 0.073
  Impurity D: 0.013
  Impurity E: 0.086
  Impurity F: 0
  Impurity G: 0.033
  Impurity H: 0.126
  Impurity I: 0.011
[5]; 80° C./61% RH, 10 days
  Impurity A: 0.111
  Impurity B: 0.008
  Impurity C: 0.065
  Impurity D: 0.021
  Impurity E: 0.070
  Impurity F: 0.015
  Impurity G: 0.039
  Impurity H: 0.131
  Impurity I: 0.011
[5]; 90° C./3% RH, 17 days
  Impurity A: 0.104
  Impurity B: 0.011
  Impurity C: 0.070
  Impurity D: 0.018
  Impurity E: 0.087
  Impurity F: 0.008
  Impurity G: 0.050
  Impurity H: 0.125
  Impurity I: 0.011
[5]; 90° C./41% RH, 10 days
  Impurity A: 0.112
  Impurity B: 0.010
  Impurity C: 0.065
  Impurity D: 0.021
  Impurity E: 0.076
  Impurity F: 0.011
  Impurity G: 0.044
  Impurity H: 0.127
  Impurity I: 0.012
[5]; 90° C./78% RH, 17 days
  Impurity A: 0.098
  Impurity B: 0.011
  Impurity C: 0.068
  Impurity D: 0.015
  Impurity E: 0.080
  Impurity F: 0.014
  Impurity G: 0.043
  Impurity H: 0.125
  Impurity I: 0.010
[5]; [6]
  Impurity A: 0.102
  Impurity B: 0.009
  Impurity C: 0.064
  Impurity D: 0.011
  Impurity E: 0.074
  Impurity F: 0.015
  Impurity G: 0.037
  Impurity H: 0.129
  Impurity I: 0.012
[5]; [7]
  Impurity A: 0.091
  Impurity B: 0.009
  Impurity C: 0.064
  Impurity D: 0.012
  Impurity E: 0.070
  Impurity F: 0.013
  Impurity G: 0.032
  Impurity H: 0.130
  Impurity I: 0.012
[5]; [8]
  Impurity A: 0.114
  Impurity B: 0.009
  Impurity C: 0.070
  Impurity D: 0.013
  Impurity E: 0.071
  Impurity F: 0
  Impurity G: 0.023
  Impurity H: 0.129
  Impurity I: 0.012
[5]; accelerated stress conditions, up to 21 days at 90° C./78% RH
  Increase in related substances: no significant increase in any related substance
[5]; up to 21 days at 90° C./78% RH
  Chemical stability in the solid state: chemically very stable
[2]; DVS camera images
  Change in visual appearance during the humidity cycles: No change in the visual appearance
[2]
  Hygroscopicity: slightly hygroscopic
  Δm (0-80%), moisture absorbed at 80% RH: 0.4 wt %
  Δm (0-90%), maximum water uptake: 0.5 wt %
  Phase change during DVS experiment: no indication of irreversible phase conversion or hydrate formation; also recorded: no irreversible phase changes
  Hysteresis: no
[2]; listed as form IV
  Hygroscopicity: slightly hygroscopic
  Δm (0-80%), moisture absorbed at 80% RH: 0.4 wt %
  Δm (0-90%), maximum water uptake: 0.5 wt %
  Hysteresis: lack of hysteresis
[3]; Decomposition
  TGA change in mass: 49.938%
  TGA onset: 420.14 °C
[3]; Small mass loss event
  TGA change in mass: 1.285%
  TGA end: 243.82 °C
  TGA onset: 224.60 °C
[3]; Small mass loss event, listed as form IV
  TGA change in mass: around 1%
